Results on ten compounds are retold here after the Kinase Knowledgebase extract (Sharma et al. 2016).

The structures appear in SMILES notation. In brackets after ≈: the same amount, converted by molar mass. Where only a bound is given, the exact number is not on record here.

The assay concerns the target EGFR (human) (UniProt P00533). The note with it: a431.

Sequence of EGFR (human) (P00533 whole entry, looked up): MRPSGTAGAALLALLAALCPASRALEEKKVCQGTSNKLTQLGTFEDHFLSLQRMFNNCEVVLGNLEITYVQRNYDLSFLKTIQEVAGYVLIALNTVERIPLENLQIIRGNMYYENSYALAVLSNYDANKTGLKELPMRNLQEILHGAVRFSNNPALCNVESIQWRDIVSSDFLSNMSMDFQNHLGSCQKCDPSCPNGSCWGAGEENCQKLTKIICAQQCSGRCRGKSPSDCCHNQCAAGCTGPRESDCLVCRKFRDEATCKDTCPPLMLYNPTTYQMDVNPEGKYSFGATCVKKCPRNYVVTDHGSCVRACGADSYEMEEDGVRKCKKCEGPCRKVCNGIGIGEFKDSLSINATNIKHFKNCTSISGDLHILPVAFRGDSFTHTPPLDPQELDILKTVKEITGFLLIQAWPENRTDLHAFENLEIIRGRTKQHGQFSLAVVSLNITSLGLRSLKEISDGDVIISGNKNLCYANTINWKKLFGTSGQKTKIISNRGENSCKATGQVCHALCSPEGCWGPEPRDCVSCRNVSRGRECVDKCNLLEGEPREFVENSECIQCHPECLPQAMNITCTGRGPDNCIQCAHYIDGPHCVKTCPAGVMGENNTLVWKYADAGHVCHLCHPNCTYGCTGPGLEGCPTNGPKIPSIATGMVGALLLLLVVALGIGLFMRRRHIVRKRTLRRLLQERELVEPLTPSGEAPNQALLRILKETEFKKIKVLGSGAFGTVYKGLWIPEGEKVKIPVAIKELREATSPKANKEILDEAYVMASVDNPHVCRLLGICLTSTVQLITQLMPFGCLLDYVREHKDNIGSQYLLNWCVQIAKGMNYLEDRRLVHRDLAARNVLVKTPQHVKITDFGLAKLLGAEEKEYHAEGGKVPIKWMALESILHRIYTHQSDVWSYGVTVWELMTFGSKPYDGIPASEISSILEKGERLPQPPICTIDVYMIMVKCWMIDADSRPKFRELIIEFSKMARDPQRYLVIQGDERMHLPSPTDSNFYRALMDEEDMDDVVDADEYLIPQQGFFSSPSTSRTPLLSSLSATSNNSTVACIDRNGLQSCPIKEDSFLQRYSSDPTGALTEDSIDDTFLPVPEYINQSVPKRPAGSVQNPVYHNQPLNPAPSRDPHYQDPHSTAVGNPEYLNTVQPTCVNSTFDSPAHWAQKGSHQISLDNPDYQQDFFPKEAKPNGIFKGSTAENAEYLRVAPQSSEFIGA

Take `COc1cc2c(Nc3ccc4cn[nH]c4c3)c(C#N)cnc2cc1OCCCN1CCOCC1`: the IC50 is over 5 µg/mL.
Take `COc1cc2ncc(C#N)c(Nc3ccc(Sc4nc5ccccc5c(=O)[nH]4)c(Cl)c3)c2cc1[N+](=O)[O-]`: the IC50 worked out at 2.28 µg/mL (≈ 4.29 µM).
`COc1cc2ncc(C#N)c(Nc3ccc(Sc4nccn4C)c(Cl)c3)c2cc1NC(=O)/C=C/CN(C)C` registered an IC50 of 0.02 µg/mL (≈ 0.0365 µM).
The compound `COc1cc2ncc(C#N)c(Nc3ccc(N(Cc4cccnc4)C(C)=O)c(Cl)c3)c2cc1N` came in with an IC50 of over 5 µg/mL.
`COc1cc2ncc(C#N)c(Nc3ccc(N(Cc4cccnc4)C(C)=O)c(Cl)c3)c2cc1[N+](=O)[O-]`: the 50% inhibitory concentration (IC50) came out at 1.6 µg/mL (≈ 3.18 µM).
Next, `COc1cc2ncc(C#N)c(Nc3ccc(-n4ccnc4)c(Cl)c3)c2cc1N`: 1.63 µg/mL (≈ 4.17 µM).
On to `CCOc1cc2ncc(C#N)c(Nc3ccc(Nc4nnc(C(F)(F)F)s4)c(Cl)c3)c2cc1[N+](=O)[O-]`, for which the IC50 was found to be 1.79 µg/mL (≈ 3.34 µM).
`CCOc1cc2ncc(C#N)c(Nc3ccc(Nc4nnc(C(F)(F)F)s4)c(Cl)c3)c2cc1NC(=O)/C=C/CN(C)C` returned an IC50 of 0.728 µg/mL (≈ 1.18 µM).
Next, `CCOc1cc2ncc(C#N)c(Nc3ccc(Sc4nc(-c5ccccc5)cs4)c(C(F)(F)F)c3)c2cc1NC(=O)/C=C/CN(C)C`: 0.3 µg/mL (≈ 0.445 µM).
As for `COc1cc2ncc(C#N)c(Nc3ccc(N(Cc4cccnc4)C(C)=O)c(Cl)c3)c2cc1NC(C)=O`, the IC50 was found to be 3.68 µg/mL (≈ 7.15 µM).

For orientation: IC50 means the concentration needed to halve the response being measured. The low end stands for higher potency, the high end for lower potency.
